Source: PubChem BioAssay (NCI)
Values joined by “and” are separate entries in the source; they are usually repeats but may differ in a detail not shown here. Equal entries are not always repeated.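 Interpolation was linear, between the two tested concentrations surrounding the appropriate level; five concentrations were tested over 48 hours in 96-well plates. Abbreviation: GI50, concentration required for 50% inhibition of growth. TGI: total growth inhibition.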

Legend:
Assay in all cases: NCI anticancer screen, dose series, 48 h
DU-145 prostate = test system: DU-145 prostate
A498 renal = test system: A498 renal
NCI-H460 lung = test system: NCI-H460 lung
SNB-19 CNS = test system: SNB-19 CNS
HL-60(TB) leukemia = test system: HL-60(TB) leukemia
SK-MEL-5 melanoma = test system: SK-MEL-5 melanoma
M14 melanoma = test system: M14 melanoma
LOX IMVI melanoma = test system: LOX IMVI melanoma

SMILES	TGI (DU-145 prostate)	TGI (A498 renal) [µM]	TGI (NCI-H460 lung)	TGI (SNB-19 CNS)	TGI (HL-60(TB) leukemia)	TGI (SK-MEL-5 melanoma)	TGI (M14 melanoma)	GI50 (DU-145 prostate) [µM]	GI50 (A498 renal) [µM]	GI50 (LOX IMVI melanoma) [µM]	TGI (LOX IMVI melanoma)	GI50 (NCI-H460 lung) [µM]	GI50 (SNB-19 CNS) [µM]	GI50 (HL-60(TB) leukemia) [µM]	GI50 (SK-MEL-5 melanoma)	GI50 (M14 melanoma) [µM]
O=CC(O)C(O)C(OC1OC(CO)C(O)C(O)C1O)C(O)CO (stereo not drawn) (tested in a mixture with another compound)	> 100 µM	> 100	> 100 µM	> 100 µM	64.1 µM	> 100 µM	> 100 µM	–	–	–	–	–	–	–	–	–
CCN(CC)C(=O)CCCCCn1c2ccccc2c2c3c(c4c5ccccc5[nH]c4c21)C(=O)N(O)C3=O	> 100 µM	20.3	15.4 µM	> 100 µM	7.63 µM	5.02 µM	39.3 µM	6.5	2.86	1.13	2.88 µM	3.62	4.7	2.8	2 µM	4.49
CCC1=C(c2ccc(OC)cc2)CC[C@]2(CCNC2=O)[C@@H]1C	> 100 µM	> 100	> 85.9 µM	> 100 µM	69.2 µM	31.1 µM	62.7 µM	–	–	–	60.5 µM	–	–	–	–	–
CN1CC[C@]23c4c5ccc(O)c4OC2c2[nH]ncc2C[C@H]3[C@H]1C5 (stereo partly drawn)	> 100 µM	–	> 100 µM	> 100 µM	> 100 µM	> 100 µM	> 100 µM	–	–	–	> 100 µM	–	–	–	–	–
CCOC(=O)n1c2ccccc2c(=O)n1CCO	> 100 µM	> 100	> 100 µM	> 100 µM	> 100 µM	> 100 µM	> 100 µM	–	–	–	–	–	–	–	–	–
O=C(Nc1cccc(-n2cc(-c3ccncc3)c(-c3ccc(O)c(Cl)c3)n2)c1)Nc1ccc(Cl)c(Cl)c1	12.1 µM	7.01	12.4 µM	> 100 µM	7.02 µM	2.99 µM	3.79 µM	2.39	1.95	1.38	5.06 µM	2.22	3.06	2.71	1.56 µM	1.59
CC(=O)OC1COC(Oc2c(C)c3c4c(c2O)[C@@H](C)CC[C@@H]4[C@@H](C)C[C@H]3C=C(C)C)C(O)C1O (stereo partly drawn)	30.7 µM	30	52.2 µM	73.7 µM	–	34.1 µM	28.6 µM	13.7	14.7	19.1	40 µM	16.2	28.8	–	16.4 µM	13
COC(=O)c1ccc2c(c1)C(=O)c1c-2n(CCCCl)c(=O)c2cc(OC)c(OC)cc12	> 100 µM	–	> 100 µM	> 100 µM	–	> 100 µM	> 100 µM	> 100	–	> 100	> 100 µM	> 100	> 100	–	> 100 µM	> 100
CN(c1ccc(NC(=O)NCCN2CCOCC2)cc1)c1ccnc(Nc2ccc(CS(C)(=O)=O)cc2)n1	> 25 µM	> 25	> 25 µM	> 25 µM	> 25 µM	> 25 µM	> 25 µM	> 25	> 25	> 25	> 25 µM	> 25	> 25	> 25	> 25 µM	> 25
COc1cc2c3c(n(CCCN4CCSCC4)c(=O)c2cc1OC)-c1cc2c(cc1C3=O)OCO2	> 100 µM	–	> 100 µM	> 100 µM	–	> 100 µM	> 100 µM	> 100	–	> 100	> 100 µM	49.7	53.8	–	> 100 µM	> 100
N=C(N)c1ccc(OCCCCCOc2ccc(C(=N)N)cc2)cc1	11.9 µM and 27.9 µM and 28.7 µM	> 50	9 µM and 17.4 µM and 18.3 µM	24.5 µM and 54.6 µM and 32.3 µM	24 µM and 56 µM and > 100 µM	3.33 µM and 11.7 µM and 29.5 µM	17.2 µM and 31.8 µM and 31.9 µM	5.64	7.24	8.47	28.8 µM and 37.8 µM and 36.4 µM	1.68	2.79	7.34	1.02 µM and 2.29 µM and 10.1 µM	5.63
COc1ccc(C(=O)/C=C/c2ccc(OCc3ccccc3)c(OC)c2)cc1OC	8.1 µM	25.3	14.4 µM	> 100 µM	32.5 µM	17.2 µM	> 100 µM	2.76	3.24	2.84	24.1 µM	2.93	5.31	3.67	3.61 µM	5.91
CC(C)C/C(=N\NC(=O)c1ccncc1)c1cc(Cl)ccc1O	28.9 µM	45.7	31.8 µM	> 100 µM	2.26 µM	2.53 µM	13.3 µM	0.379	2.12	0.178	–	0.127	1.66	0.295	0.562 µM	0.627
O=S(=O)(NCCCNc1nccc(-c2c(-c3cccc(F)c3)nc3occn23)n1)c1cccc2ccccc12	> 100 µM	> 100	> 100 µM	> 100 µM	72.2 µM	43.6 µM	> 100 µM	6.97	8.36	4.28	> 100 µM	4.79	9.41	4.21	3.67 µM	5.75
CC(C)c1cc(C(C)C)c(Cl)c(Cl)c1O (tested in a mixture with another compound)	> 100 µM	–	> 100 µM	42.8 µM	36 µM	24.3 µM	> 100 µM	–	–	–	> 100 µM	–	–	–	–	–
O=C(/C=C/c1cccc(Oc2ccc(Cl)cc2)c1)c1ccccc1	207 µM	312	208 µM	111 µM	58.4 µM	127 µM	241 µM	69.7	163	16.9	33 µM	60.1	35.3	23.4	36 µM	53.1
Cc1nn2c(-c3nc4cc(Cl)c(Cl)cc4[nH]3)c(-c3ccc(F)cc3)nc2s1	> 100 µM	8.37	> 33.8 µM	> 76.8 µM	> 100 µM	> 100 µM	> 100 µM	5.19	2.09	2.79	> 100 µM	1.75	5.18	> 100	5.86 µM	5.94
Cc1csc(CCC(N)C(=O)O)n1 (stereo not drawn)	–	–	> 100 µM	–	–	> 100 µM	> 100 µM	–	–	–	> 100 µM	–	–	–	–	–

SMILES	TGI (DU-145 prostate)	TGI (A498 renal) [µM]	TGI (NCI-H460 lung)	TGI (SNB-19 CNS)	TGI (HL-60(TB) leukemia)	TGI (SK-MEL-5 melanoma)	TGI (M14 melanoma)	GI50 (DU-145 prostate) [µM]	GI50 (A498 renal) [µM]	GI50 (LOX IMVI melanoma) [µM]	TGI (LOX IMVI melanoma)	GI50 (NCI-H460 lung) [µM]	GI50 (SNB-19 CNS) [µM]	GI50 (HL-60(TB) leukemia) [µM]	GI50 (SK-MEL-5 melanoma)	GI50 (M14 melanoma) [µM]
N#Cc1cccc(C2C3=C(COC3=O)N(CCO)c3cc4c(cc32)CCC4)c1 (stereo not drawn)	7.29 µM	0.303	5.19 µM	> 50 µM	0.383 µM	2.87 µM	0.293 µM	0.191	0.0411	0.292	> 44.9 µM	0.16	0.18	0.132	0.146 µM	0.0832
C=CC[PH+](c1ccccc1)c1ccccc1.C=CC[PH+](c1ccccc1)c1ccccc1.[Pt+2].[S-]c1ncccn1.[S-]c1ncccn1	> 100 µM	> 100	48.1 µM	> 100 µM	90.2 µM	38.5 µM	31.9 µM	23.9	11.5	2.18	5.91 µM	18.5	58.9	7.95	17.3 µM	5.67
O=C(Nc1ccc(Br)cc1)Nc1cccc(Br)c1	> 100 µM	> 100	–	> 100 µM	–	> 100 µM	> 100 µM	5.8	4.81	–	–	–	11.1	–	> 100 µM	9.96
CCN(CC)CCS(=O)(=O)CCNc1ccnc2cc(Cl)ccc12	> 32.8 µM	8.28	> 25.7 µM	> 100 µM	20 µM	10.4 µM	9.33 µM	2.43	2.25	0.982	5.85 µM	2.74	6.69	1.37	3.79 µM	2.53
Nc1n[nH]c2ccc([C@@H]3Nc4c(F)cc5[nH]ncc5c4[C@H]4C5CCC(C5)[C@@H]34)cc12 (stereo partly drawn)	> 46.2 µM	0.337	> 31.9 µM	> 62.9 µM	0.642 µM	4.94 µM	> 32.8 µM	0.419	0.0413	0.539	23.9 µM	0.352	0.515	0.243	0.6 µM	0.206
Cc1n(Cc2ccc3ccccc3n2)cc[n+]1Cc1ccc2ccccc2c1	14.8 µM	10.2	11.2 µM	12.1 µM	1.46 µM	1.61 µM	10.7 µM	2.08	1.84	1.05	3.77 µM	0.659	0.438	0.344	0.533 µM	1.13
CCc1c(C#N)c(SC(C(N)=O)c2ccccc2)nc(N2CCC(N)CC2)c1C#N (stereo not drawn)	31.1 µM	30.4	30.7 µM	28.5 µM	25.9 µM	28.3 µM	30.6 µM	16.9	15.4	14.3	27.4 µM	16.1	14.9	10.2	15.1 µM	16.2
Cc1cn2c(/C=C3/C(=O)Nc4ccc(C(=O)O)cc43)c(C)nc2s1	> 100 µM	> 100	> 100 µM	> 100 µM	> 100 µM	> 100 µM	> 100 µM	> 100	> 100	> 100	> 100 µM	> 100	> 100	> 100	> 100 µM	> 100
O=C(O)Cn1ccc(=O)c2c([N+](=O)[O-])cccc21	> 100 µM	> 100	> 100 µM	> 100 µM	> 100 µM	> 100 µM	> 100 µM	–	–	–	–	–	–	–	–	–
Nc1ccn([C@@H]2S[C@H](CO)[C@@H](O)[C@@H]2F)c(=O)n1	> 100 µM	–	> 100 µM	> 100 µM	–	> 100 µM	0.842 µM	0.0424	0.0709	0.224	> 100 µM	0.138	0.0581	0.0792	0.178 µM	0.0616
Cc1ccc(C(=O)N2C/C(=C/c3ccccc3)C(=O)/C(=C/c3ccccc3)C2)cc1	> 100 µM	> 100	> 100 µM	> 100 µM	> 100 µM	> 31.6 µM	> 92.1 µM	17.8	> 65	1.16	3.08 µM	31	9.51	18.8	3.3 µM	3.85
Cc1ccc(-c2nc(C(Cl)Cl)nc3cc(C)nn23)cc1	2.81 µM	4.7	3.01 µM	> 100 µM	5.46 µM	> 100 µM	–	0.432	1.75	4.01	> 100 µM	0.515	2.34	1.33	3.5 µM	–
COc1ncc2cc1NS(=O)(=O)c1cccc(c1)C(=O)NCC1=CC=C(S1)c1ncnc3c1SC2=C3C	3.4 µM	0.548	2.55 µM	–	–	0.151 µM	1.89 µM	0.42	0.188	0.0902	0.499 µM	0.37	–	–	0.0369 µM	0.0992
O=C1c2ccccc2-c2c1c1ccc([N+](=O)[O-])cc1c(=O)n2CCCCl	> 100 µM	–	67.5 µM	–	> 100 µM	5.89 µM	> 100 µM	40.4	–	3.24	> 100 µM	2.61	–	52.4	0.874 µM	47
CN1CCOCCOCCOc2ccccc2NC(=O)c2nc(cnc2N)-c2ccc(cc2)S1(=O)=O	–	3.93	–	> 100 µM	–	–	–	–	0.0241	–	–	–	16.6	–	–	–
CCOC(=O)C1=CSC2=NC3=C(CCC/C3=C\c3cc(OC)c(OC)c(OC)c3)C(c3cc(OC)c(OC)c(OC)c3)N12 (stereo not drawn)	> 100 µM	–	–	–	–	–	–	3.48	–	–	–	–	–	–	–	–
Nc1c(C(=O)Nc2ccccn2)sc2nc3c(cc12)CCCCCC3	5.77 µM	–	6.62 µM	13.8 µM	1.43 µM	7.22 µM	3.05 µM	1.18	–	2.97	41.9 µM	1.12	1.22	0.14	0.906 µM	0.295
